Data on 19 compounds can be found in ChEMBL document CHEMBL1201862, “PubChem BioAssay data set” (2004).

Active and inactive are the calls of the source.

As a reminder, the EC50 is the concentration giving half of the maximal effect. Usually IC50 stands for the point on the concentration scale where inhibition reaches its midpoint. One may read the AC50 as the midpoint of the concentration-response curve, whichever way the signal moves.

Test [1] concerns the target Luciferin 4-monooxygenase (Photinus pyralis, UniProt P08659). Put plainly: firefly luciferase enzyme inhibitors, dose response, biochemical, luminescence (AID 1891).
The nature of test [2]: Luminescence Cell-Based Dose Confirmation HTS to Identify Inhibitors of Platelet Dense Granule Release. [Related pubchem assays: 1663 (Primary HTS), 1678 (Summary of Project)]. The format is functional.
Test [3] concerns the target T1, Neuropeptide Y receptor type 1 (Homo sapiens, UniProt P25929).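 Also: HEK293 cells with a CNG channel challenged with NPY then isoproterenol; potency as antagonist that reverses NPY suppression of cAMP signal.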
T1 sequence (P25929 whole entry): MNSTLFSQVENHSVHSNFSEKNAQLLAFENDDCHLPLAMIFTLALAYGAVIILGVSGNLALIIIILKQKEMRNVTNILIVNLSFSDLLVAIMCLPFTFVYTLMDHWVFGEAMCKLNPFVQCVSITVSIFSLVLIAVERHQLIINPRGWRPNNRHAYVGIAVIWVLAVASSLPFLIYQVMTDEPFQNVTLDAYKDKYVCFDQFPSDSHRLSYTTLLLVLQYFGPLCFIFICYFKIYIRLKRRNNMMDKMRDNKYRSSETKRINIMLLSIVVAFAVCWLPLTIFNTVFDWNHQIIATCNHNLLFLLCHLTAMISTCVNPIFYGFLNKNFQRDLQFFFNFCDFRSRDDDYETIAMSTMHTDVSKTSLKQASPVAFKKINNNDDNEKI
The format is functional.

Test [4] is described as follows: microbe, parasite or virus in culture. The format is functional. To be noted: Mycobacterium tuberculosis.
Test [5] deals with T2, Neuropeptide Y receptor type 2 (Homo sapiens, UniProt P49146).
T2 sequence (P49146 whole entry): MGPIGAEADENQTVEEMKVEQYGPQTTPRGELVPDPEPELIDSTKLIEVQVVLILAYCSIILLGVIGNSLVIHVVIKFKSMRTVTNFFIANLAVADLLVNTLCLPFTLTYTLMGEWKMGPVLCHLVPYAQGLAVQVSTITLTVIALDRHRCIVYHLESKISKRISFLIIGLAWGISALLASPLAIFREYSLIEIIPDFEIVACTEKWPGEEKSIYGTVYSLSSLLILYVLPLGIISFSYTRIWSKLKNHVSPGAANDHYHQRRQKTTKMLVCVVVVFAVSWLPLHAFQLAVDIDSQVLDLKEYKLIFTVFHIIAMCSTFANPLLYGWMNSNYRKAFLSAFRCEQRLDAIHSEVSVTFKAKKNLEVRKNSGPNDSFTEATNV
The format is functional, cell-based.

The next test addresses Cytochrome P450 3A4 (Homo sapiens, UniProt P08684). To be noted: Potency.
In test [6] the target is Neurotensin receptor type 1 (Homo sapiens, UniProt P30989). Format: functional.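 Also: Image-based confirmatory dose-response assay measuring agonist activity at NTR1; NTR1-expressing U2OS osteosarcoma cells imaged for beta-arrestin GFP spot formation; agonist potency where compounds increase beta-arrestin recruitment.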
Test [7] is described as follows: A Cell Based Secondary Assay To Explore Cytotoxicity of Compounds that Sensitize Mycobacterium Tuberculosis to Beta-Lactam Antibiotics. The format is functional.
The test system of test [8] is BJ. Put plainly: cytotoxicity toward BJ-TERT fibroblasts, dose response, cell-based, RAS-independent, luminescence (AID 1933). The format is functional. To be noted: Homo sapiens.
A short description of test [9]: cytotoxicity toward DRD oncogenic fibroblasts, dose response, cell-based, non-viral oncogenic, luminescence (AID 1934). To be noted: Homo sapiens. Format: functional.
Test [10] in a line: luciferase reporter signal reduction – luminescence, H4-C neuroglioblastoma cells, dose response (AID 2458).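 Also: H4 neuroglioblastoma cells stably carrying a luciferase reporter gene fusion.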 The format is functional, cell-based. A general note: Reporter assays use an easily measured gene product as a stand-in for the process of interest.
The nature of test [11]: Luminescence Cell-Based Dose Response HTS to Identify Inhibitors of 5'UTR Stem-Loop Driven Prion Protein mRNA Translation in H4 Neuroglioblastoma Cells. [Related pubchem assays: 1827 (Project Summary), 1813 (Primary HTS)]. The format is functional.
The test system of test [12] is BJ. Put plainly: cytotoxicity toward BJ-TERT-LT-ST fibroblasts, dose response, cell-based, RAS-independent, luminescence (AID 1935).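 Also: BJ fibroblasts immortalized with TERT plus LT and ST oncogenes.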 To be noted: Homo sapiens. The format is functional.
Test [13] is described as follows: inhibitors of SNCA 5'UTR-driven reporter translation, confirmation, H4 neuroglioma cells, luminescence (AID 1988). The format is functional, cell-based.
Test [14] is described as follows: inhibitors of firefly luciferase expression or activity, dose response, H4 neuroglioma cells, luminescence (AID 1990). Format: functional, cell-based.
Test [15] has as its system BJ. Put plainly: cells. The following applies: Homo sapiens. The format is functional, cell-based.
Test [16] can be described thus: inhibitors of SNCA 5'UTR-driven translation, confirmation, luminescence, H4 neuroglioblastoma cells, dose confirmation (AID 2454).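 Also: H4 neuroglioblastoma cells carrying an alpha-synuclein 5'UTR luciferase reporter; potency for inhibition of the luciferase signal.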 Format: functional, cell-based.
The nature of test [17]: cells. Format: functional, cell-based.
In test [18] the target is Heat shock protein HSP 90-alpha (Homo sapiens, UniProt P07900). The format is functional, organism-based.
Test [19] can be described thus: inhibitors of intracellular T. cruzi replication, confirmation, NIH3T3 host cells, beta-gal luminescence (AID 2044).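 Also: intracellular parasites grown in NIH/3T3 mouse fibroblasts as host cells; luminescent beta-galactosidase reporter signal from transgenic T. cruzi replicating inside host cells; inhibitors lower the luminescence signal.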 Format: functional, cell-based.
The nature of test [20]: cytotoxicity toward NIH3T3 fibroblasts, dose response, counter-screen, cell-based, ATP luminescence, mouse fibroblasts (AID 2010).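 Also: cells exposed to compound for about 90 hours before reading.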 The format is functional.
Test [21] can be described thus: cells.
The target of another test is Bcl-2-like protein 1 (Homo sapiens, UniProt Q07817). Put plainly: BCL-XL inhibitors, dose response, selectivity assay for MCL1 inhibitor project, biochemical, fluorescence polarization, 1536-well (AID 2218). Background: Polarisation of emitted light reports the rotation of a fluorescent probe.
Test [22] deals with Induced myeloid leukemia cell differentiation protein Mcl-1 (Homo sapiens, UniProt Q07820). As to the kind of experiment: MCL1-BIM BH3 interaction inhibitors, dose response, biochemical, fluorescence polarization, BIM-BH3 peptide, 1536-well (AID 2217).
The next test concerns the target T3, Estrogen receptor (Homo sapiens, UniProt P03372).
T3 sequence (P03372 whole entry): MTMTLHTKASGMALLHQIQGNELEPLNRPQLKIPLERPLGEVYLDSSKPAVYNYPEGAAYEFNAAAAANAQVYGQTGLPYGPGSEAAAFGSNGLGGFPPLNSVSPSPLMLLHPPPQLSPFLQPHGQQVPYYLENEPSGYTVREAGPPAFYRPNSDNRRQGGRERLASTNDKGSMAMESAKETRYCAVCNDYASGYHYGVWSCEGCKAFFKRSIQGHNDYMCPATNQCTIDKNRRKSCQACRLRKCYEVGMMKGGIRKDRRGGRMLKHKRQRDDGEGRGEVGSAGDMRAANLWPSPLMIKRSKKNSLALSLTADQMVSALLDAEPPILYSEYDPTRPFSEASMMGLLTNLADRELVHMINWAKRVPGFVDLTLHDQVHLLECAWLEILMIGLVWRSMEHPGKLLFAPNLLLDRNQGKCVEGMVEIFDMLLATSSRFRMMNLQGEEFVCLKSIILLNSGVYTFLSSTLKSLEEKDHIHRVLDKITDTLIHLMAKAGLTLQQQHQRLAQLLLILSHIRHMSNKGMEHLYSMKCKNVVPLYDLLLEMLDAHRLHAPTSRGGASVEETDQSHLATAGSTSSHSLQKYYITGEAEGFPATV

Test [23] concerns the target T4, Heat shock factor protein 1 (Mus musculus, UniProt P38532).
T4 sequence (P38532 whole entry): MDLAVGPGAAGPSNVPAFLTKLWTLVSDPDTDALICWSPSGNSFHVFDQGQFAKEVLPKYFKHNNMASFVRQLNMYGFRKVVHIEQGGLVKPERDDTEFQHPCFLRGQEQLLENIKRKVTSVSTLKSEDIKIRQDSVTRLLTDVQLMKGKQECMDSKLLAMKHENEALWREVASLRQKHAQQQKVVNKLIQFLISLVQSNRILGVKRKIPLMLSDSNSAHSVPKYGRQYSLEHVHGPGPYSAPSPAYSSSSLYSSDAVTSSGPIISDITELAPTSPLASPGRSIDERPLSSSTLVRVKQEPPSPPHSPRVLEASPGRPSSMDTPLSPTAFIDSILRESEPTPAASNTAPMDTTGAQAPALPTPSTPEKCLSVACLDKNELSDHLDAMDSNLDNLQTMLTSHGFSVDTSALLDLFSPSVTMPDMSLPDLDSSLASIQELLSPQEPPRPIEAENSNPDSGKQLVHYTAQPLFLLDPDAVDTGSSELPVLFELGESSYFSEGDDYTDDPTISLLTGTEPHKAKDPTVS
Put plainly: inhibition of MG132-induced HSE-luciferase signal, confirmation, cell-based, NIH3T3, luminescence, dose retest (AID 2382).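 Also: NIH3T3 fibroblasts with HSF1-driven luciferase reporter stressed by proteasome inhibitor MG132; luminescence from HSF1-driven luciferase expression after 8 hours of MG132 stress.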 Format: functional.

Another test addresses Estrogen receptor beta (Homo sapiens, UniProt Q92731).
Test [24] concerns the target Melanin-concentrating hormone receptor 1 (Homo sapiens, UniProt Q99705). As to the kind of experiment: Late-stage fluorescence-based counterscreen for antagonists of the G-protein coupled receptor 7 (GPR7): cell-based dose response assay to identify antagonists of the melanin-concentrating hormone receptor 1 (MCHR1). [Related pubchem assays (depositor defined):AID1861, AID1880, AID1952, AID2148, AID2251, AID2257, AID485339]. Format: functional.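 Also: stimulated with 30 nM MCH peptide agonist.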

Neurotensin receptor type 1, sequence (P30989 whole entry): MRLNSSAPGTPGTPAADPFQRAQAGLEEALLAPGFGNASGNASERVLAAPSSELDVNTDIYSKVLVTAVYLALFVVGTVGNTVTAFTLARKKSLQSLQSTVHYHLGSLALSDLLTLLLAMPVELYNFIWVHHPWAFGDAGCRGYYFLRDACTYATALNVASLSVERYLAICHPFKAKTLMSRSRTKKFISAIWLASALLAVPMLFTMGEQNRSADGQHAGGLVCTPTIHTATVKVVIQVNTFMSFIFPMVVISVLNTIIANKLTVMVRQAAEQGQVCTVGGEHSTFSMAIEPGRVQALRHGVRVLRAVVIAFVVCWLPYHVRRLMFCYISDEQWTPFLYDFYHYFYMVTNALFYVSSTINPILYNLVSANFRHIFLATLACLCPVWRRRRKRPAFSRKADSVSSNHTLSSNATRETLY
Cytochrome P450 3A4, sequence (P08684 whole entry): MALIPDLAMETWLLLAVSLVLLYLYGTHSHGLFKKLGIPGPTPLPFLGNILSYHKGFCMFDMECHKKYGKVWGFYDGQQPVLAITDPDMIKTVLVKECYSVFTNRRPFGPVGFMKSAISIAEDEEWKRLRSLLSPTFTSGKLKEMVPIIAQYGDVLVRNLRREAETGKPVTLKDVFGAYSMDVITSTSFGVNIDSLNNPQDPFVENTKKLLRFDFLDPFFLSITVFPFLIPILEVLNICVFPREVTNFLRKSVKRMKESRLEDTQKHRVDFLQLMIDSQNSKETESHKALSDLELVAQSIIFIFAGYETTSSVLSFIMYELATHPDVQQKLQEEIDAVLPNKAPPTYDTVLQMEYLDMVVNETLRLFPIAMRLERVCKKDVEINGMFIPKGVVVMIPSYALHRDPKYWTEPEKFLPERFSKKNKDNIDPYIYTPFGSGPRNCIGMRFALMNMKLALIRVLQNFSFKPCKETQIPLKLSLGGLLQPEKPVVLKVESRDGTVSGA
Estrogen receptor beta, sequence (Q92731 whole entry): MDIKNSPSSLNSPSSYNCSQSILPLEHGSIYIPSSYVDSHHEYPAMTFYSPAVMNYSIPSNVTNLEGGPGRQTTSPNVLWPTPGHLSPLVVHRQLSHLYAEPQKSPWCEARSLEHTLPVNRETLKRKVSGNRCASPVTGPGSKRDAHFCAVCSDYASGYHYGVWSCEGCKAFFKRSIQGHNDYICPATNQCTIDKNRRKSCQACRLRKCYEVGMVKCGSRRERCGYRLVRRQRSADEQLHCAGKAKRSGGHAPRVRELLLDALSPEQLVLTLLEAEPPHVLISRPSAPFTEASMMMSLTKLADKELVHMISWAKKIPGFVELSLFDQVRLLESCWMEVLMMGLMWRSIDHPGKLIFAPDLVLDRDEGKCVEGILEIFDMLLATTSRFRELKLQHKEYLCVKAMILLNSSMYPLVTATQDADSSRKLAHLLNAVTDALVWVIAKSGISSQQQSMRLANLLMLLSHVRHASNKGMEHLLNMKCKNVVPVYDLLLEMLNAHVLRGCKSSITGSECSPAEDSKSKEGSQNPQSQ
Melanin-concentrating hormone receptor 1, sequence (Q99705 whole entry): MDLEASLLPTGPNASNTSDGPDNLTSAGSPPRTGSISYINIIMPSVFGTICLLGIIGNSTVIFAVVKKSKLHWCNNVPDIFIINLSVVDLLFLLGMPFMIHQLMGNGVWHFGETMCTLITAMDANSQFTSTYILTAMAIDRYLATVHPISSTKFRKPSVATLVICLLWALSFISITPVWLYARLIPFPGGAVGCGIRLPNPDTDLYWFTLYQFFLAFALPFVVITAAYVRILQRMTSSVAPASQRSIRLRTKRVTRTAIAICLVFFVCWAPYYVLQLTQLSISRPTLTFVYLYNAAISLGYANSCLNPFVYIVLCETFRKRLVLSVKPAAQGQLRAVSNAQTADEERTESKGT
Bcl-2-like protein 1, sequence (Q07817 whole entry): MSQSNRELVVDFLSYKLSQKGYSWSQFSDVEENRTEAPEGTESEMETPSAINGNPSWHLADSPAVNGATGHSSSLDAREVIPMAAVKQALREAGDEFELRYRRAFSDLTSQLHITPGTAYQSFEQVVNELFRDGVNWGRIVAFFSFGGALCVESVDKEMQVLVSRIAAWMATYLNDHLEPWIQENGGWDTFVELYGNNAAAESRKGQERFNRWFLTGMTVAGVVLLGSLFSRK
Induced myeloid leukemia cell differentiation protein Mcl-1, sequence (Q07820 whole entry): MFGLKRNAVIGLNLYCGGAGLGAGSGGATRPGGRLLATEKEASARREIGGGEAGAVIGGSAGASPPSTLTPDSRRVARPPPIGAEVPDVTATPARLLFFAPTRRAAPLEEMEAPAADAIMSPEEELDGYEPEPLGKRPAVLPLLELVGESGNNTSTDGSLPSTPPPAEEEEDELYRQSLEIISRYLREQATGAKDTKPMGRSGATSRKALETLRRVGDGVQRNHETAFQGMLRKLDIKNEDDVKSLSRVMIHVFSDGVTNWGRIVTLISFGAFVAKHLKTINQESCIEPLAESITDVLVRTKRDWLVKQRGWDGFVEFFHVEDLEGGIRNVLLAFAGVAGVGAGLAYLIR
Luciferin 4-monooxygenase, sequence (P08659 whole entry): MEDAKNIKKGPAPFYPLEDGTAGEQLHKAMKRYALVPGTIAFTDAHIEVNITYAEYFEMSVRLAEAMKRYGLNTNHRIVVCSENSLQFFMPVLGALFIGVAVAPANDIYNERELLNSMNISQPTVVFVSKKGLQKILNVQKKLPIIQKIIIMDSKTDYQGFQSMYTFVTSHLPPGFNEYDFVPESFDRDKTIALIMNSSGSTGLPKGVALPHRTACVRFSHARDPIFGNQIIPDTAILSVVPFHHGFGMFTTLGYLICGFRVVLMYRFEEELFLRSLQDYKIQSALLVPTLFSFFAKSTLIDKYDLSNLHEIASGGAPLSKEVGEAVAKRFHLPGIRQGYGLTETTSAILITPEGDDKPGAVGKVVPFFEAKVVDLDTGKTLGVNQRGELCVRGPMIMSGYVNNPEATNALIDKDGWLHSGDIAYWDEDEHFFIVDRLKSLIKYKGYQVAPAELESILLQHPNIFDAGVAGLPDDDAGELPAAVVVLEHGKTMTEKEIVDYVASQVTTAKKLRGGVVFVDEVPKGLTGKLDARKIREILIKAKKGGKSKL

As for `Cc1nc(N2CCC(C)CC2)c2oc3ccccc3c2n1`, the EC50 in [1] is 109 µM (active); in test [2] it was > 112 µM (not active). For the same compound, the IC50 in test [3] is 7.23 µM (active); in test [5], 5.77 µM (active). Besides, in test [4], the CC50 is > 40 µM (active).

In the case of `CCCCCCC1=Cc2cc(OC)c(OC)cc2C(C(C(C)=O)C(=O)OC)O1` (centres undefined), the AC50 on Cytochrome P450 3A4 was 3.16 µM (inconclusive).

With `O=C(CN(C(=O)c1ccc(Cl)cc1)N1C(=O)C2CCCCC2C1=O)c1ccc(Cl)cc1` (centres undefined), the EC50 in test [6] is 18 µM (active).

For the compound `COC(=O)c1c(CSc2cccc(C)c2)noc1C(=O)NCc1ccco1`, the CC50 in test [7] is > 40 µM (active).

For `C(#CC1C=CC2OC(c3ccccc3)OCC2O1)c1ccccc1` (centres undefined), the AC50 at Cytochrome P450 3A4 is 2.51 µM (inconclusive).

With `CC(C)c1ccc(Nc2nnc(SC3CCOC3=O)s2)cc1` (centres undefined), in test [6], the EC50 is 7.37 µM (active).

As to `O=C(COC(=O)c1ccc(-c2ccccc2)cc1)Nc1ccccc1-c1ccccc1`, the IC50 in [3] was 5.72 µM (active); in [5], 6.97 µM (active).

With `O=C(O)CSc1nnc(-c2ccc3c(c2)OCO3)o1`, the IC50 in test [3] and in test [5] was > 35 µM (not active) throughout.

For `COc1cccc(/C=C/C(=O)c2cccc([N+](=O)[O-])c2)c1OC`, the EC50 in test [6] was 9.39 µM (active).

`Brc1ccc(C2=Nn3c(nnc3-c3[nH]nc4c3CCC4)SC2)cc1`: the EC50 with BJ [8] was 2.33 µM (active); in test [9], 1.65 µM (active); in test [10], > 3.8 µM (not active); in [11] it was > 120 µM (not active); with BJ [12], 138 µM (inconclusive); in test [13], < 0.1 µM (active). Besides, the EC50 is 11.9 µM (active) in [14], 43.5 µM (active) with BJ [15], 1.97 µM (active) in test [16] and 2.12 µM (active) in “cells [17]”.

As for `C=C(C)COc1ccc2c(C)c(C)c(=O)oc2c1OCC(=C)C`, the CC50 in test [7] is > 40 µM (active).

In the case of `Cc1sc(NC(=O)c2ccco2)c(C(c2cccnc2)N2CCC(C)CC2)c1C` (centres undefined), the AC50 in test [18] was 4.94 µM (active). Besides, the 50% effective concentration (EC50) in [19] was < 0.1 µM (active); in test [20] it was 9.92 µM (active); in “cells [21]” it was 0.182 µM (active).

Turning to `C[C@H](NS(=O)(=O)OCC(Cl)(Cl)Cl)C1CC1c1ccccc1` (some centres undefined), the IC50 is listed as > 109 µM (not active) against Bcl-2-like protein 1 and 65.4 µM (not active) in test [22].

Regarding `COC(=O)[C@@]1(C)C=C[C@@H](Cc2ccccc2)N1C(=O)c1ccccc1`, on Cytochrome P450 3A4, the AC50 is 20 µM (inconclusive).

As to `COc1ccc(NC(=O)c2ccco2)cc1N`, the results for the IC50 against Estrogen receptor and on Estrogen receptor beta were 36.1 µM (not active) and 10.7 µM (active), respectively. In test [23], the EC50 was > 195 µM (not active).

Turning to `O=C(COc1ncnc2cc([N+](=O)[O-])ccc12)NCCc1ccc(Cl)cc1`, the 50% effective concentration (EC50) in test [19] was < 0.1 µM (active); in test [20], > 30 µM (not active); in “cells [21]”, 0.377 µM (active).

As to `CCc1ccc2oc(-c3cc(N)cc(C)c3O)nc2c1`, the CC50 in test [7] is > 40 µM (active).

For the compound `COc1cc(CN2CCCCC2)ccc1OCc1ccccc1`, the values for the EC50 (in test [19]; in [20]; in “cells [21]”) were < 0.1 µM (active), > 60 µM (not active) and 0.67 µM (active), respectively.

With `CCOc1ccc(Oc2c(Br)cnn(-c3ccc(C(C)C)cc3)c2=O)cc1`, in [24], the IC50 was 3.1 µM (active).
